Entries after “also recorded” stand apart in the source; their conditions may differ.
Legend:
colonic dysplasia = assay: In vivo fluorescence endoscopy of colon in CPC;Apc mouse; conditions: CPC;Apc mouse colon
Source text: A genetically engineered mouse model (Cpc;Apc) that spontaneously forms adenomatous polyps in the colon was used for this study and handled according to Institutional Guidelines. The colons of anesthetized mice were first cleaned with water before imaging with a small animal endoscope (Karl Storz Veterinary Endoscope) using the white light channel to locate polyps by identifying anatomic landmarks and the distance of the endoscope tip from the anus. […] Fluorescent and reflectance images were then collected with the same endoscope set to the appropriate channels. Once in vivo imaging was complete, four of the mice used in the study were euthanized and colons harvested. Polyps and flat lesions detected during fluorescence imaging were located, removed, and processed for histology (H&E).
These mice are genetically-engineered to spontaneously develop colonic dysplasia, and the colonic lesions that develop are molecularly and histologically similar to that seen in human disease, making these mice a good model for monitoring cancer development. Because the extra-cellular domain of claudin-1 is completely homologous between human and mouse, peptides developed for human targets can be directly used in mouse imaging experiments. […] CPC;Apc mice were imaged at ˜3 months of age when they first begin to develop dysplasia. […] After imaging is completed, mice were euthanized, and the colons were resected. Based on the location of dysplastic lesions determined using fluorescence images collected with endoscopy, a pathologist measured the depth of dysplasia on histology, as shown by the dashed arrow in FIG. 7E. […] Images are obtained from mice over at least three sessions separated by 1 week to monitor for cancer progression.

[1] = tested on: proximal human colon specimens; assay: Immunofluorescence of proximal human colon with claudin-1 peptide and antibody
Procedure: Formalin-fixed, paraffin-embedded (FFPE) specimens from human proximal colon were obtained from the archived tissue bank in the Department of Pathology at the University of Michigan. 5 μm thick sections were cut, mounted onto glass slides (Superfrost Plus, Fischer Scientific). The tissues were deparaffinized using a standard protocol. The sections were incubated with 3 rounds of xylene (3 min each) and 2 rounds of 100% and 95% ethanol (2 min each), and hydrated with water for 5 min. Antigen retrieval was performed with 10 mM citric acid buffer containing 0.05% Tween 20; pH 6.0. The specimens were placed in a citric acid buffer, maintained at a sub-boiling temperature for 15 min, and then allowed to cool to RT for 30 min. […] Confocal fluorescence images were collected with using a 63× oil immersion objective (Leica TCS SP5 Microsystems). […]
The mean fluorescence intensities from 3 boxes with dimensions of 20×20 μm2 placed completely within the surface epithelium of each image was measured for RTS*-Cy5.5 using custom Matlab software (MathWorks Inc). […]
Co-localization of peptide and antibody binding can be appreciated on these merged images, and the extent is characterized by the Pearson's correlation coefficient ρ. We measured the fluorescence intensities from binding of the RTS*-Cy5.5 peptide in a set of 3 boxes with dimensions of 20×20 μm^2 located at random on cells in the epithelium.

RTS*-Cy5.5: RTSPSSR labeled at the C-terminus with Cy5.5 via a GGGSK linker
fluorescence signal from dysplasia on endoscopy (colonic dysplasia): Increased signal; also recorded: increased fluorescence | binding on confocal microscopy ([1]; normal colonic mucosa and hyperplastic polyps): minimal fluorescence intensity; also recorded: minimal binding | binding on confocal microscopy ([1]; sessile serrated adenomas (SSA) and adenomas): strong binding; also recorded: found to bind; also recorded: Strong staining

Reference: patent US10746738B2, “Claudin-1 peptide reagents and methods” (THE REGENTS OF THE UNIVERSITY OF MICHIGAN, priority 2015, dated 2020)
